Measured values from patent publication US6737383B1, “Herbicidal oxadiazolidines” (priority 1999, dated 2004).

Experiments:
sourgrass = experiment: Test D sourgrass; type: in vivo, Trichachne insularis; conditions: Preemergence, 0 to 100 scale, 0 no injury, 100 complete control
Text: Seeds, tubers, or plant parts of Alexandergrass (Brachiaria plantaginea), bermuda-grass (Cynodon dactylon), common pursiane (Portulaca oleracea), common ragweed (Ambrosia elatior), common groundsel (Senecio vulgaris), dallisgrass (Paspalum dilatatum), goosegrass (Eleusine indica), guineagrass (Panicum maximum), itchgrass (Rottboellia exaltata), Johnson grass (Sorghum halepense), large crabgrass (Digitaria sanguinalis), pitted morningglory (Ipomoea lacunosa), purple nutsedge (Cyperus rotundus), sandbur (Cenchrus echinatus), sourgrass (Trichachne insularis), Spanishneedles (Bidens bipinnata), surinam grass (Brachiaria decumbens) and tall mallow (Malva sylvestris) were planted into greenhouse pots of flats containing greenhouse planting medium. Plant species were grown in separate pots or individual compartments. Preemergence applications were made within one day of planting the seed or plant part.
Test chemicals were formulated in a non-phytotoxic solvent mixture which included a surfactant and applied preemergence to the surface of the pot containing seeds in a sandy loam soil. Untreated control pots and treated pots were placed in the greenhouse for growth and visually evaluated for injury 14 to 21 days after herbicide application. Plant response ratings, summarized in Table C, are based on a 0 to 100 scale where 0 is no injury and 100 is complete control. […]

spring wheat = experiment: Test E spring wheat; type: in vivo, Triticum aestivum; conditions: Preemergence
scentless chamomile = experiment: Test E scentless chamomile; type: in vivo, Matricaria inodora; conditions: Postemergence
Description: (§1) Compounds evaluated in this test were formulated in a non-phytotoxic solvent mixture which included a surfactant and applied to plants that were in the 1- to 4-leaf stage (postemergence application). A mixture of sandy loam soil and greenhouse potting mix in a 60:40 ratio was used for the postemergence test.
(§2) Plantings of these crops and weed species were adjusted to produce plants of appropriate size for the postemergence test. All plant species were grown using normal greenhouse practices. Crop and weed species include annual bluegrass (Poa annua), blackgrass (Alopecurus myosuroides), black nightshade (Solanum nigra), chickweed (Stellaria media), common poppy (Papaver rhoeas), deadnettle (Lamium amplexicaule), downy brome (Bromus tectorum), field violet (Viola arvensis), galium (Galium aparine), green foxtail (Setaria viridis), Italian ryegrass (Lolium multiflorum), jointed goatgrass (Aegilops cylindrica), kochia (Kochia scoparia), lambsquarters (Chenopodium album), littleseed canarygrass (Phalaris minor), rape (Brassica napus), redroot pigweed (Amaranthus retroflexus), Russian thistle (Salsola kali), scentless chamomile (Matricaria inodora), spring barley (Hordeum vulgare), sugar beet (Beta vulgaris), sunflower (Helianthus annuus), ivyleaf speedwell (Veronica hederaefolia), spring wheat (Triticum aestivum), winter wheat (Triticum aestivum), wild buckwheat (Polygonum convolvulus), wild mustard (Sinapis arvensis), wild oat (Avena fatua), windgrass (Apera spica-venti) and winter barley (Hordeum vulgare).
(§3) Treated plants and untreated controls were maintained in a greenhouse for approximately 21 to 28 days, after which all treated plants were compared to untreated controls and visually evaluated. […] A dash response (-) means no test result.

wild buckwheat = experiment: Test E wild buckwheat; type: in vivo, Polygonum convolvulus; conditions: Postemergence
Method in brief: (§4)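 Greenhouse test: compounds in non-phytotoxic solvent with surfactant; for postemergence, sprayed on plants at 1- to 4-leaf stage grown in 60:40 sandy loam/potting mix. Injury rated visually against untreated controls after about 21 to 28 days.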

sugar beet = experiment: Test E sugar beet; type: in vivo, Beta vulgaris; conditions: Postemergence
Description: as §1, §2, §3

jointed goatgrass = experiment: Test E jointed goatgrass; type: in vivo, Aegilops cylindrica; conditions: Postemergence
Method in brief: as §4

arrowleaf sida = experiment: Test C postemergence arrowleaf sida; type: in vivo, Sida rhombifolia; conditions: 0 to 100 scale, 0 no effect, 100 complete control
Description: as §1, with “grown for various periods of time before treatment” for “in the 1- to 4-leaf stage”
(§5) Plantings of these crops and weed species were adjusted to produce plants of appropriate size for the postemergence test. All plant species were grown using normal greenhouse practices. Crop and weed species include arrowleaf sida (Sida rhombifolia), barnyardgrass (Echinochloa crus-galli), cocklebur (Xanthium strumarium), common ragweed (Ambrosia elatior), corn (Zea mays), cotton (Gossypium hirsutum), eastern black nightshade (Solanum ptycanthum), fall panicum (Panicum dichotomiflorum), field bindweed (Convolvulus arvensis), giant foxtail (Setaria faberii), hairy beggarticks (Bidens pilosa), ivyleaf morningglory (Ipomoea hederacea), johnsongrass (Sorghum halepense), ladysthumb smartweed (Polygonum persicaria), lambsquarters (Chenopodium album), large crabgrass (Digitaria sanguinalis), purple nutsedge (Cyperus rotundus), redroot pigweed (Amaranthus retroflexus), soybean (Glycine max), surinam grass (Brachiaria decumbens), velvetleaf (Abutilon theophrasti) and wild poinsettia (Euphorbia heterophylla).
(§6) Treated plants and untreated controls were maintained in a greenhouse for approximately 14, to 21 days, after which all treated plants were compared to untreated controls and visually evaluated. Plant response ratings, summarized in Table C, were based upon a 0 to 100 scale where 0 was no effect and 100 was complete control. A dash response (−) means no test result.

field bindweed = experiment: Test C postemergence field bindweed; type: in vivo, Convolvulus arvensis; conditions: 0 to 100 scale, 0 no effect, 100 complete control
Description: as §1, with “grown for various periods of time before treatment” for “in the 1- to 4-leaf stage”
as §5, §6

ivyleaf morningglory = experiment: Test C postemergence ivyleaf morningglory; type: in vivo, Ipomoea hederacea; conditions: 0 to 100 scale, 0 no effect, 100 complete control
Method in brief: (§7)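 Compounds in a non-phytotoxic solvent with surfactant were sprayed postemergence on greenhouse-grown plants in 60:40 sandy loam/potting mix. After about 14 to 21 days, visual ratings against untreated controls on a 0 (no effect) to 100 (complete control) scale.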

barnyardgrass = experiment: Test C postemergence barnyardgrass; type: in vivo, Echinochloa crus-galli; conditions: 0 to 100 scale, 0 no effect, 100 complete control
Method in brief: as §7

redroot pigweed = experiment: Test C postemergence redroot pigweed; type: in vivo, Amaranthus retroflexus; conditions: 0 to 100 scale, 0 no effect, 100 complete control
Description: as §1, with “grown for various periods of time before treatment” for “in the 1- to 4-leaf stage”
as §5, §6

large crabgrass = experiment: Test C postemergence large crabgrass; type: in vivo, Digitaria sanguinalis; conditions: 0 to 100 scale, 0 no effect, 100 complete control
Description: as §1, with “grown for various periods of time before treatment” for “in the 1- to 4-leaf stage”
as §5, §6

[1] = Rate 125 g/ha, 0 to 100 scale (0 no effect, 100 complete control)
[2] = Rate 500 g/ha, 0 to 100 scale where 0 is no effect and 100 is complete control
[3] = Rate 250 g/ha, 0 to 100 scale (0 no effect, 100 complete control)
[4] = Rate 500 g/ha, 0 to 100 scale, 0 no effect, 100 complete control
[5] = Rate 250 g/ha, 0 to 100 scale where 0 is no effect and 100 is complete control

`Cc1cccc(C)c1-n1c(=O)on(C(=O)N(c2ccc(F)cc2)C(C)C)c1=O` [Compound 18] was tested, and the “Plant response rating, Sourgrass” value (sourgrass; Rate 64 g/ha) was 100.
For `CC(C)N(C(=O)n1oc(=O)n(C(C)C)c1=O)c1ccc(Cl)cc1` [Compound 114], the “Plant response rating, Spring Wheat” value (spring wheat; [1]) was 0, the “Plant response rating, Spring Wheat” value (spring wheat; Rate 250 g/ha, 0 to 100 scale) was 10 and the “Plant response rating, Spring Wheat” value (spring wheat; [2]) was 20. The “Plant response rating, Scentless chamo” value (scentless chamomile; Rate 125 g/ha, 0 to 100 scale) was 0, the “Plant response rating, Scentless chamo” value (scentless chamomile; [3]) was 0 and the “Plant response rating, Scentless chamo” value (scentless chamomile; [4]) was 0. For the same molecule, the “Plant response rating, Wild buckwheat” value (wild buckwheat; Rate 125 g/ha, 0 to 100 scale) was 20, the “Plant response rating, Wild buckwheat” value (wild buckwheat; [3]) was 30 and the “Plant response rating, Wild buckwheat” value (wild buckwheat; [4]) was 30. The “Plant response rating, Sugar beet” value (sugar beet; Rate 125 g/ha, 0 to 100 scale) was 50, the “Plant response rating, Sugar beet” value (sugar beet; [3]) was 55 and the “Plant response rating, Sugar beet” value (sugar beet; [4]) was 50. The “Plant response rating, Jointed goatgra” value (jointed goatgrass; Rate 125 g/ha, 0 to 100 scale) was 15, the “Plant response rating, Jointed goatgra” value (jointed goatgrass; [3]) was 5 and the “Plant response rating, Jointed goatgra” value (jointed goatgrass; [4]) was 50.
In the case of `CCn1c(=O)on(C(=O)N(c2ccccc2)C(C)C)c1=O` [Compound 117], the “Plant response rating Arrowleaf sida” value (arrowleaf sida; Rate 140 g/ha) is reported as 0, the “Plant response rating Arrowleaf sida” value (arrowleaf sida; Rate 280 g/ha) is reported as 0 and the “Plant response rating Arrowleaf sida” value (arrowleaf sida; Rate 560 g/ha) is reported as 0. The “Plant response rating Arrowleaf sida” value (arrowleaf sida; Rate 1120 g/ha) was 50, the “Plant response rating Field bindweed” value (field bindweed; Rate 140 g/ha) was 0 and the “Plant response rating Field bindweed” value (field bindweed; Rate 280 g/ha) was 30. For the same molecule, the “Plant response rating Field bindweed” value (field bindweed; Rate 560 g/ha) was 30, the “Plant response rating Field bindweed” value (field bindweed; Rate 1120 g/ha) was 40 and the “Plant response rating I. morningglory” value (ivyleaf morningglory; Rate 140 g/ha) was 0. The “Plant response rating I. morningglory” value (ivyleaf morningglory; Rate 280 g/ha) was 0, the “Plant response rating I. morningglory” value (ivyleaf morningglory; Rate 560 g/ha) was 0 and the “Plant response rating I. morningglory” value (ivyleaf morningglory; Rate 1120 g/ha) was 0. The “Plant response rating, Barnyardgrass” value (barnyardgrass; Rate 140 g/ha) was 70, the “Plant response rating, Barnyardgrass” value (barnyardgrass; Rate 280 g/ha) was 80 and the “Plant response rating, Barnyardgrass” value (barnyardgrass; Rate 560 g/ha) was 90. For the same molecule, the “Plant response rating, Barnyardgrass” value (barnyardgrass; Rate 1120 g/ha) was 90, the “Plant response rating, Redroot pigweed” value (redroot pigweed; Rate 140 g/ha) was 0 and the “Plant response rating, Redroot pigweed” value (redroot pigweed; Rate 280 g/ha) was 0. For the same molecule, the “Plant response rating, Redroot pigweed” value (redroot pigweed; Rate 560 g/ha) was 0, the “Plant response rating, Redroot pigweed” value (redroot pigweed; Rate 1120 g/ha) was 30 and the “Plant response rating Large crabgrass” value (large crabgrass; Rate 140 g/ha) was 0. The “Plant response rating Large crabgrass” value (large crabgrass; Rate 280 g/ha) was 20, the “Plant response rating Large crabgrass” value (large crabgrass; Rate 560 g/ha) was 60 and the “Plant response rating Large crabgrass” value (large crabgrass; Rate 1120 g/ha) was 80.
In the case of `CC(C)N(C(=O)n1oc(=O)n(C(C)C)c1=O)c1ccc(F)cc1` [Compound 131], the “Plant response rating, Spring Wheat” value (spring wheat; [1]) is reported as 70, the “Spring Wheat plant response rating (0 to 100 scale)” value (spring wheat; Rate 250 g/ha) is reported as 100 and the “Plant response rating, Spring Wheat” value (spring wheat; [2]) is reported as 100. The “Plant response rating Arrowleaf sida” value (arrowleaf sida; Rate 280 g/ha) was 10, the “Plant response rating Arrowleaf sida” value (arrowleaf sida; Rate 560 g/ha) was 30 and the “Plant response rating Arrowleaf sida” value (arrowleaf sida; Rate 1120 g/ha) was 60. For the same molecule, the “Plant response rating Field bindweed” value (field bindweed; Rate 140 g/ha) was 0, the “Plant response rating Field bindweed” value (field bindweed; Rate 280 g/ha) was 0 and the “Plant response rating Field bindweed” value (field bindweed; Rate 560 g/ha) was 0. For the same molecule, the “Plant response rating Field bindweed” value (field bindweed; Rate 1120 g/ha) was 60, the “Plant response rating, Scentless chamo” value (scentless chamomile; Rate 62 g/ha, 0 to 100 scale) was 55 and the “Plant response rating, Scentless chamo” value (scentless chamomile; Rate 125 g/ha, 0 to 100 scale) was 0. For the same molecule, the “Plant response rating, Scentless chamo” value (scentless chamomile; [4]) was 50, the “Scentless chamo plant response rating” value (scentless chamomile; [5]) was 20 and the “Plant response rating, Wild buckwheat” value (wild buckwheat; Rate 62 g/ha, 0 to 100 scale) was 50. For the same molecule, the “Plant response rating, Wild buckwheat” value (wild buckwheat; Rate 125 g/ha, 0 to 100 scale) was 0, the “Plant response rating, Wild buckwheat” value (wild buckwheat; [4]) was 0 and the “Wild buckwheat plant response rating” value (wild buckwheat; [5]) was 0. For the same molecule, the “Plant response rating I. morningglory” value (ivyleaf morningglory; Rate 140 g/ha) was 0, the “Plant response rating I. morningglory” value (ivyleaf morningglory; Rate 280 g/ha) was 0 and the “Plant response rating I. morningglory” value (ivyleaf morningglory; Rate 560 g/ha) was 20. For the same molecule, the “Plant response rating I. morningglory” value (ivyleaf morningglory; Rate 1120 g/ha) was 50, the “Plant response rating, Sugar beet” value (sugar beet; Rate 62 g/ha, 0 to 100 scale) was 0 and the “Plant response rating, Sugar beet” value (sugar beet; Rate 125 g/ha, 0 to 100 scale) was 0. For the same molecule, the “Plant response rating, Sugar beet” value (sugar beet; [4]) was 0, the “Sugar beet plant response rating” value (sugar beet; [5]) was 0 and the “Plant response rating, Barnyardgrass” value (barnyardgrass; Rate 140 g/ha) was 70. For the same molecule, the “Plant response rating, Barnyardgrass” value (barnyardgrass; Rate 280 g/ha) was 70, the “Plant response rating, Barnyardgrass” value (barnyardgrass; Rate 560 g/ha) was 95 and the “Plant response rating, Barnyardgrass” value (barnyardgrass; Rate 1120 g/ha) was 95. The “Plant response rating, Sourgrass” value (sourgrass; Rate 16 g/ha) was 90, the “Plant response rating, Redroot pigweed” value (redroot pigweed; Rate 140 g/ha) was 10 and the “Plant response rating, Redroot pigweed” value (redroot pigweed; Rate 280 g/ha) was 10. For the same molecule, the “Plant response rating, Redroot pigweed” value (redroot pigweed; Rate 560 g/ha) was 20, the “Plant response rating, Redroot pigweed” value (redroot pigweed; Rate 1120 g/ha) was 30 and the “Plant response rating, Jointed goatgra” value (jointed goatgrass; Rate 62 g/ha, 0 to 100 scale) was 30. The “Plant response rating, Jointed goatgra” value (jointed goatgrass; Rate 125 g/ha, 0 to 100 scale) was 0, the “Plant response rating, Jointed goatgra” value (jointed goatgrass; [4]) was 60 and the “Jointed goatgra plant response rating” value (jointed goatgrass; [5]) was 0. The “Plant response rating Large crabgrass” value (large crabgrass; Rate 140 g/ha) was 0, the “Plant response rating Large crabgrass” value (large crabgrass; Rate 280 g/ha) was 20 and the “Plant response rating Large crabgrass” value (large crabgrass; Rate 560 g/ha) was 70. For the same molecule, the “Plant response rating Large crabgrass” value (large crabgrass; Rate 1120 g/ha) was 85.
